# Patent US20070207975A1, “Materials and methods for treating and preventing Her-2/neu overexpressing, FAS-elevated cancer cells” (EVANSTON NORTHWESTERN HEALTHCARE, priority 2006, published 2007)
# What was measured:
# [1] = test system: Mutant Her-2/neu promoter; experiment: Luciferase reporter driven by Her-2/neu promoter with mutated PEA3 binding site; assay type: cell-based, human; details: for Luciferase activity relative to vehicle-treated wild-type promoter cells: mutant promoter, GLA 10 μg/mL for 24 hours
# Protocol: FIG. 11. Luciferase activity in transiently transfected cells. Luciferase activity was assayed in cells that were transiently transfected with a pGL2-Luc construct containing a luciferase reporter gene under the control of a Her-2/neu promoter fragment containing a wild-type (top panel, left) or mutant (top panel, right) PEA3 binding site as described herein. The magnitude of activation in Her-2/neu promoter-luciferase-transfected cells was determined after normalization of the luciferase activity obtained in cells co-transfected with equivalent amounts of the empty pGL2-Luciferase vector lacking the Her-2/neu promoter (-luciferase) and the internal control plasmid pRL-CMV. This control value was used to calculate the relative change in the transcriptional activities of Her-2/neu-promoter-luciferase-transfected cells in response to treatments after normalization to pRL-CMV. The activity of the wild-type promoter in untreated control cells was defined as 100%. […] One-factor ANOVA was used to analyzed differences in the percentages of luciferase activity between the various treatment groups.
# The luciferase activities reported in Table 3 were assayed in cells that were transiently transfected with a pGL2-luciferase (Promega Inc., Madison, Wis.) construct containing a luciferase reporter gene under the control of a Her-2/neu promoter fragment containing a wild-type or mutant PEA3 binding site, as previously described by Xing et al. (36), incorporated herein by reference. Cells were transfected using FuGENE 6 transfection reagent (Roche Biochemicals, Indianapolis, Ind.) as directed by the manufacturer and were treated with vehicle (ethanol; EtOH) or γ-linolenic acid (10 μg/mL for 24 hours). Luciferase activity from cell extracts was detected with a Luciferase Assay System (Promega Inc.).
# To examine whether the increased PEA3 levels might mediate the inhibition of Her-2/neu transcription in GLA-treated cells, the effect of GLA on transcription from a Her-2/neu promoter bearing a mutated PEA3 binding sequence, at −33 to −28, that is known to abolish PEA3 binding (36, incorporated herein by reference) was investigated. For this analysis we used the same luciferase reporter gene construct described above but containing the HER-2/neu promoter mutation at the PEA3 binding site (5′-GAG GAA-3′ at −33 to −28 changed to 5′-GAG CTC-3′).
# To conduct Her-2/neu promoter activity assays, cells were initially transfected using FuGENE 6 transfection reagent (Roche Biochemicals, Indianapolis, Ind.) as directed by the manufacturer. Overnight-serum starved cancer cells seeded into 24-well plates (˜5×10^4 cells/well) were transfected in low-serum (0.1% FBS) media with 1.5 μg/well of the pGL2-luciferase (Promega, Madison, Wis.) construct containing a luciferase reporter gene driven by either an intact (Her-2/neu wild-type PEA3-binding site-luciferase) or by a mutated (Her-2/neu mutated PEA3-binding site-luciferase) Her-2/neu promoter fragment along with […] of the internal control plasmid pRL-CMV, which was used to correct for transfection efficiency. […] Approximately 24 hours after treatments, luciferase activities from cell extracts were detected with a luciferase Assay System following manufacturer's instructions (Promega, Madison, Wis., USA) using a Victor^2™ Multilabel Counter (Perkin-Elmer Life Sciences).
# Lipogenic Cells = experiment: Effect of fatty acids, lipogenic cells (Table 2); assay type: cell-based
# PEA3 = experiment: Immunoblot analysis of PEA3 protein; assay type: cell-based, human
# Protocol: […] Louis, Mo.). […] […] A) Cell surface expression of Her-2/neu protein in BT-474 and SK-Br3 cells was determined by flow cytometry using a mouse anti-Her-2/neu antibody directed against the extracellular domain of the p185^Her-2/neu oncoprotein (clone Ab-5; Oncogene Research Products; San Diego, Calif.). Briefly, after GLA or control treatment, cells were washed, harvested, resuspended in phosphate-buffered saline (PBS) containing 1% FBS, and incubated with 5 μg/mL Ab-5 antibody for 1 hour at 4° C. The cells were washed again and then incubated with a fluorescein isothiocyanate (FITC)-conjugated anti-mouse IgG secondary antibody (Jackson ImnunoResearch Laboratories, West Grove, Pa.) diluted 1:200 in cold PBS containing 1% FBS for 45 minutes at 4° C. The cells were washed once more in cold PBS, and flow cytometric analysis was performed with a FACScalibur flow cytometer (Becton Dickinson, San Diego, Calif.) equipped with Cell Quest Software (Becton Dickinson). […] As a control for nonspecific immunofluorescence, cells were stained with the secondary antibody alone (solid black line). The mean fluorescence signal associated with cells for labeled p185^Her-2/neu was quantified using the Geo Mean (GM) fluorescence parameter provided with the software. […] B) Immunoblot analysis of Her-2/neu and PEA3 proteins in control- and GLA-treated BT-474 and SK-Br3 cells. Cells were washed twice with PBS and then lysed in buffer (20 m M Tris [pH 7.5], 150 m M NaCl, 1 mM EDTA, 1 m M EGTA, 1% Triton X-100, 2.5 m M sodium pyrophosphate, 1 mM β-glycerolphosphate, 1 mM Na3VO4, 1 μg/ml leupeptin, 1 mM phenylmethylsulfonyl fluoride) for 30 minutes on ice. Equal amounts of protein (10 μg) were heated in sodium dodecyl sulfate (SDS) sample buffer for 10 minutes at 70° C., subjected to electrophoresis on either 3-8% NuPAGE Tris-acetate (p185^Her-2/neu) or 10% SDS-polyacrylamide gel electrophoresis (PEA3) gels, and transferred to nitrocellulose membranes. Nonspecific binding was blocked by incubation for 1 hour with TBS-T (25 mM Tris-HCl [pH 7.5], 150 mM NaCl, and 0.05% Tween-20) containing 5% nonfat dry milk. The treated filters were washed in TBS-T and then incubated with primary antibodies, anti-p185^Her-2/neu mouse monoclonal antibody—Clone Ab-3 [Oncogene Research Products, San Diego, Calif.] and anti-PEA3 mouse monoclonal antibody—sc-113 [Santa Cruz Biotechnology, Santa Cruz, Calif.], for 2 hours in TBS-T containing 5% (w/v) nonfat dry milk. The membranes were washed in TBS-T and horseradish peroxidase—conjugated secondary antibodies in TBS-T were added for 45 minutes. Immunoreactive bands were detected by enhanced chemiluminescence reagent (Pierce, Rockford, Ill.). Blots were reprobed with an anti-β-actin goat polyclonal antibody (Santa Cruz Biotechnology) to control for protein loading and transfer. Densitometric values of protein bands were quantified using Scion Imaging Software (Scion Corp., Frederick, Md.).
# AP-2 = AP-2 expression levels; assay type: cell-based, human
Compound,Luciferase activity relative to vehicle-treated wild-type promoter cells ([1]; BT-474),Luciferase activity relative to vehicle-treated wild-type promoter cells ([1]; MDA-MB-231),Luciferase activity relative to vehicle-treated wild-type promoter cells ([1]; MDA-MB-453),Luciferase activity relative to vehicle-treated wild-type promoter cells ([1]; NCI-N87),Luciferase activity relative to vehicle-treated wild-type promoter cells ([1]; SK-Br3),Luciferase activity relative to vehicle-treated wild-type promoter cells ([1]; SK-OV3),Effect of Fatty Acids: Lipogenic Cells (Lipogenic Cells),"levels of PEA3 protein (PEA3; BT-474 and SK-Br3, GLA 10 μg/mL for 48 hours)","levels of PEA3 protein (PEA3; MDA-MB-231, GLA exposure)","PEA3 protein expression (PEA3; MDA-MB-453, SK-OV3 and NCI-N87, GLA 10 μg/mL for 48 hours)",AP-2 expression (AP-2; GLA-treated cells),"regulation of luciferase reporter driven by promoter with mutated PEA3 site ([1]; OA-supplemented SK-Br3, SK-OV3 and NCI-N87 cells)","PEA3 protein levels (PEA3; MCF-7/neo cells, OA supplementation)","PEA3 protein expression (PEA3; SK-Br3, SK-OV3 and NCI-N87, OA 20 μM, 48 hours)","AP-2 expression levels (AP-2; Her-2/neu-overexpressing cancer cells, OA supplementation)"
"CCCCCC=CCC=CCC=CCCCCC(=O)O [GLA, 6,9,12-octadecatrienoic acid]",12% (95% CI = 9-15%),61% (95% CI = 59-63%),11% (95% CI = 3-19%),19% (95% CI = 12-26%),21% (95% CI = 18-24%),14% (95% CI = 6-22%),No effect,increase,not changed substantially,increased,does not appear to regulate,–,–,–,–
"CCCCCCCCC=CCCCCCCCC(=O)O [OA, 9-octadecenoic acid]",–,–,–,–,–,–,No effect,–,–,–,–,not subject to negative regulation,not significantly affected,significant up-regulation,failed to modulate
